{"source": "paper PMC2365101", "about": "“Anti-Inflammatory Activity of (Polyphenolic)-Sulfonates and Their Sodium Salts in Rodents” (Metal-Based Drugs, 1998)", "key": {"[1]": {"system": "IL-1 release from P388D1 macrophages", "assay": "IL-1 release from P388D1 macrophages (L929 bioassay)", "format": "cell-based, mouse", "conditions": "5 μM, over 18 hours, N=6"}, "[2]": {"system": "TNFα release from IC-21 macrophages", "assay": "TNFα release from IC-21 macrophages induced by LPS (L929 bioassay)", "format": "cell-based, mouse", "conditions": "for TNFα release, Percent of LPS Control: 18 hours exposure to LPS, N=6", "from_the_text": "Few reports in the literature indicate interaction at these receptor sites other than by peptides or antibodies. […] Blocking these receptors is desirable because the entire inflammation cascade of events is triggered by the early release of TNFa and IL-1. […] Radioisotopes were obtained from New England Nuclear [Dupont, Boston, MA] and substrates and co- factors were obtained from Sigma Chemical Co. [St. Louis, MO]. […] Cell lines were obtained from American Type Culture Collection [Rockville, MD]. In Vivo Tests Anti-inflammatory screen in mice: Male CF male mice weighing 28-32g obtained from Jackson Lab. [Bar Harbor, […]] were used to screen agents at 8 or 16 mg/kg intraperitoneal [I.P.] x 2 administered 3 hr and 30 min prior to administering the irritant, according to Winter's protocol. Evaluation of the induced edema was made by injecting 2% carrageenan in 0.9% saline into the plantar region of the foot. The opposite foot injected with 0.9% isotonic saline was used as a base line. […] Salmonella abortus equi [Lot # 69F4003] […] Drugs from 2 to 16 mg/kg, I.P. were administered 2 hr prior and 2 hr post-injection of the LPS and then subsequently for every 24 hr for the length ofthe animals' lives. Deaths were recorded every 12 hr and continued for 96 hr. […] In vitro TNFa andIL-1 Measurements and Cellular Regulation IC-21 mouse macrophages were maintained in RPMI-1640 + 10% FCS + P/S. After the cells had grown to confluency, E. coli LPS at 10 Ixg/ml was added to the medium. Agents were incubated at 12.5 to 100 µM final concentration for 18 hr. The medium (100 btl) was collected for TNFCt determinations. Interleukin-1 [IL-1] release was determined using P388D1 cells which were maintained in RPMI-1640 + 10% FCS + P/S. The L929 bioassay was used to quantitate the TNF and the IL-1 levels. The L929 mouse fibroblasts were grown in DMEM + 10% FCS + P/S to confluency in 96 well plates and incubated with 100 tl ofmedium from […] or P388D cells after 18 hr. The cells were stained with 0.2% crystal violet in 20% MeOH and read at 580 nm using a Molecular Devices scanner (SOFT-max program). High Affinity Binding to Receptors on L929-106 Cells Two laCi of 125I-TNFct (human recombinant, 30 mCi/tg New England Nuclear) or 125I-IL-1 (70-120[.t Ci/lxg,New England Nuclear) was added to confluency L929 cells for 90 min or 5 hr, respectively with 25, 50 and 100 tM of the test compounds 12]. The cells were washed repeatedly with isotonic saline, pH.7.2 and aliquots counted. Prostaglandin cylcooxygenase activity Mouse J774AI macrophages maintained in Dulbecco's modified Eagle's medium + 15% FCS + P/S. Cells (5 x 106) were incubated with agents (5 to 100 ].tM final concentration) and 3H-arachidonic acid (100 Ci/mol) for 60 min at 37C in a CO2 incubator. The reaction was terminated with 2N HCI, the mixture extracted 2 X with ether, and the organic layer evaporated."}}}
{"smiles": "COc1c2cc(S(=O)(=O)[O-])cc1Cc1cc(S(=O)(=O)[O-])cc(c1OC)Cc1cc(S(=O)(=O)[O-])cc(c1OC)Cc1cc(S(=O)(=O)[O-])cc(c1OC)Cc1cc(S(=O)(=O)[O-])cc(c1OC)Cc1cc(S(=O)(=O)[O-])cc(c1OC)C2.[Na+].[Na+].[Na+].[Na+].[Na+].[Na+]", "note": "[Compound 6]", "values": [{"measurement": "IL-1 release, Percent of Control", "setting": "[1]", "value": "13 + 3% of Control"}, {"measurement": "TNFα release, Percent of LPS Control", "setting": "[2]; 5 μM", "value": "118 + 7% of LPS Control"}, {"measurement": "TNFα release, Percent of LPS Control", "setting": "[2]; 12.5 μM", "value": "102 + 5% of LPS Control"}, {"measurement": "TNFα release, Percent of LPS Control", "setting": "[2]; 25 μM", "value": "86 + 6% of LPS Control"}, {"measurement": "TNFα release, Percent of LPS Control", "setting": "[2]; 50 μM", "value": "62 + 4% of LPS Control"}, {"measurement": "reduction of TNFα release", "setting": "[2]; 50 μM, 18 hr", "value": 38, "unit": "%"}]}
{"smiles": "CC(=O)Oc1c2cc(S(=O)(=O)[O-])cc1Cc1cc(S(=O)(=O)[O-])cc(c1OC(C)=O)Cc1cc(S(=O)(=O)[O-])cc(c1OC(C)=O)Cc1cc(S(=O)(=O)[O-])cc(c1OC(C)=O)Cc1cc(S(=O)(=O)[O-])cc(c1OC(C)=O)Cc1cc(S(=O)(=O)[O-])cc(c1OC(C)=O)Cc1cc(S(=O)(=O)[O-])cc(c1OC(C)=O)Cc1cc(S(=O)(=O)[O-])cc(c1OC(C)=O)C2.[Na+].[Na+].[Na+].[Na+].[Na+].[Na+].[Na+].[Na+]", "note": "[Compound 8]", "values": [{"measurement": "IL-1 release, Percent of Control", "setting": "[1]", "value": "75+ 5% of Control"}, {"measurement": "TNFα release, Percent of LPS Control", "setting": "[2]; 5 μM", "value": "73 + 4% of LPS Control"}, {"measurement": "TNFα release, Percent of LPS Control", "setting": "[2]; 12.5 μM", "value": "66 + 4% of LPS Control"}, {"measurement": "TNFα release, Percent of LPS Control", "setting": "[2]; 25 μM", "value": "44 + 3% of LPS Control"}, {"measurement": "TNFα release, Percent of LPS Control", "setting": "[2]; 50 μM", "value": "53 +4% of LPS Control"}]}
